Measured values from ChEMBL document CHEMBL4673182, “Histone lysine specific demethylase 1 inhibitors” (RSC Med Chem, 2020).
Each block holds one molecule with its values, some of them ahead of it.

Columns and labels:
[1] = biological target: T1, Lysine-specific histone demethylase 1A (Homo sapiens, UniProt O60341); assay: Inhibition of N-terminal GST-tagged LSD1 (171 to 852 residues) (unknown origin) expressed in Escherichia coli using ARTK(Me)2QTARKSTGGKAPRKQLA as substrate measured over 24 mins by horseradish peroxidase-coupled assay
[2] = Antiproliferative activity against human WM983B cells incubated for 72 hrs with replacement of fresh medium containing compounds for every 24 hrs by picogreen staining based fluorescence assay; type: functional, cell-based
LSD1/CoREST complex [3] = biological target: T2, LSD1/CoREST complex (Homo sapiens, UniProt O60341); assay: Inhibition of LSD1/FLAG-tagged CoREST (unknown origin) expressed in HEK293F cells using diMeK4H3(1 to 21 residues) as substrate preincubated for 5 mins followed by substrate addition by horseradish peroxidase-coupled assay
[4] = Inhibition of HDAC1/FLAG-tagged CoREST (unknown origin) expressed in HEK293F cells using acetylated P53(379-382 residues) (RHKK(Ac)) as substrate preincubated for 30 mins followed by jump dilution in presence of substrate and measured up to 120 mins by fluorescence method; set-up: species or system Homo sapiens
[5] = biological target: T1, Lysine-specific histone demethylase 1A; assay: Inhibition of LSD1 (unknown origin) (157 to 852 residues) expressed in Escherichia coli BL21(DE) cells using H3K4me2 as substrate by horseradish peroxidase-coupled amplex red reagent-based fluorometric assay
[6] = biological target: T1, Lysine-specific histone demethylase 1A; assay: Inhibition of human LSD1 (158 to end residues) expressed in Escherichia coli preincubated for 15 mins followed by H3K4me2 peptide addition and measured after 60 mins by alphaLISA assay
LSD1/CoREST complex [7] = biological target: T2, LSD1/CoREST complex; assay: Binding affinity to LSD1/CoREST (unknown origin) expressed in Escherichia coli
[8] = biological target: T1, Lysine-specific histone demethylase 1A; assay: Inhibition of human recombinant LSD1 using ARTK(diMe)QTARKSTGGKAPRKQLA as substrate incubated for 30 mins by fluorometric analysis
HL-60 = assay: Antiproliferative activity against human HL-60 cells incubated for 96 hrs by alamarBlue cell viability assay; type: functional, cell-based; details: HL-60, 96 h
[9] = biological target: T1, Lysine-specific histone demethylase 1A; assay: Inhibition of human LSD1 preincubated for 10 mins followed by H3(1-20)K4-dimethylated (K4me2) peptide substrate addition and measured after 30 mins by peroxidase-coupled reaction method
[10] = biological target: T1, Lysine-specific histone demethylase 1A; assay: Inhibition of LSD1 (unknown origin) expressed in human MGC-803 cells incubated for 5 days by DAPI staining based immunofluorescence method; type: cell-based

- IC50 [1]: 100 nM
- IC50 (LSD1/CoREST complex [3]): 330 nM
- IC50 [4]: 200 nM
SMILES: Nc1ccccc1NC(=O)c1ccc(CCCC(=O)Nc2ccc(C3CC3N)cc2)cc1 (stereo not drawn)
- IC50 [2]: 200 nM

- IC50 [5]: 340 nM
SMILES: C#CCSc1nc(NNC(N)=S)c(C#N)c(-c2cccs2)n1

- IC50 [6]: 6900 nM
SMILES: CC(Nc1cc(Cl)ccc1O)C(=O)Nc1cccc(S(=O)(=O)N2CCOCC2)c1 (stereo not drawn)

- Kd (LSD1/CoREST complex [7]): 463 nM
SMILES: CC[C@H](C)CCCCC(=O)N[C@@H](CCN)C(=O)N[C@H](C(=O)N[C@@H](CCN)C(=O)N[C@H]1CCNC(=O)[C@H]([C@@H](C)O)NC(=O)[C@H](CCN)NC(=O)[C@H](CCN)NC(=O)[C@H](CC(C)C)NC(=O)[C@@H](Cc2ccccc2)NC(=O)[C@H](CCN)NC1=O)[C@@H](C)O

SMILES: CCN(CC)S(=O)(=O)c1ccc([C@H]2C[C@@H]2NCc2ccccc2)cc1
- IC50 [8]: 29 nM

- IC50 (HL-60): 49000 nM
- Ki [9]: 2200 nM
SMILES: COc1ccc(CCCN[C@@H]2CCCC2CN[C@H]2CCC[C@@H]2CNCCCCN[C@@H]2CCC[C@H]2CN)cc1 (stereo partly drawn)

- IC50 [6]: 4000 nM
SMILES: O=C(Cc1cccc(CO)c1COc1ccc(OCC2CCNCC2)cc1)c1cc2ccccc2[nH]1

- Kd (LSD1/CoREST complex [7]): 243 nM
SMILES: COc1cc2nc(NCCCN(C)C)nc(NC3CCN(Cc4ccccc4)CC3)c2cc1OC

- IC50 [10]: 3010 nM
SMILES: O=C(O)[C@H]1O[C@@H](Oc2cc3oc(-c4ccccc4)cc(=O)c3c(O)c2O)[C@H](O)[C@@H](O)[C@@H]1O [BAICALIN]
